The test system of data set [1] is coxsackie A21 virus (Cox A21). Put plainly: Tissue culture antiviral testing, Cox A21 (viral cytopathic effect in HeLa cells). The format is cell-based. The note with it: 48 and 72 hours post-treatment, read-out: Lowest concentration of compound necessary to cause a 50 percent reduction in cytopathic effect, Cox A21. The method, then:
(§1) Monolayered HeLa cells in 16 millimeter (mm) tissue culture dishes were treated with 1 ml of culture medium (Eagles medium supplemented with fetal calf serum) containing compound at 100, 50, 25, 12.5, 6.25 or 0 μg/ml. Culture mediums such as those described herein are more fully described in standard tests, as for example, Kuchler's Biochemical Methods in Cell Culture and Virology, Dowden, Hutchinson and Ross, Inc., Stroudsberg, PA (1977). Immediately following treatment, cells were challenged with 0.05 ml of rhinovirus type 1A (RV-1A), rhinovirus type 2 (RV-2) or coxsackie A21 virus (Cox A21) in culture medium. Cell controls received no virus.
(§2) **Lowest concentration of compound (μg/ml) necessary to cause a 50
(§3) percent reduction in cytopathic effect.

A short description of data set [2]: Cytotoxicity in tissue culture (monolayered HeLa cells). The note with it: human, observed at 48 and 72 hours post-treatment, read-out: Cytotoxicity (concentration of compound found to be toxic to the cell). The format is cell-based. The method, then: as §1
*Cytotoxicity figures represent the concentration of compound (μg/ml)
found to be toxic to the cell.

In data set [3] the test system is Cox A21 virus. Put plainly: Animal testing, mice challenged intraperitoneally with a normally lethal dose of Cox A21 virus. In kind it is in vivo, Swiss male mice. The note with it: 600 mg/kg PO; at the 95 percent confidence level. The method, then: The subject compounds were also tested in animals as follows:
Swiss male mice, 10-12 g in weight, were challenged intraperitoneally (IP) with 0.2 ml of a normally lethal dose, i.e., a virus dose sufficient to cause .congruent.80-100 percent mortality in infected animals within 10 days of challenge, of Cox A21 virus in phosphate buffered saline containing 1 percent heat inactivated fetal calf serum. Three hours later, mice were treated orally (PO) with 0.2 ml of compound suspended in 0.5 percent hydroxypropyl methylcellulose (Methocel) or with 0.2 ml of Methocel alone. The test compounds were administered at a 30 milligram/milliliter (mg/ml) concentration, which is a 600 milligram/kilogram (mg/kg) dosage. Mice were counted daily for 7-10 days post-challenge and deaths recorded. A modified Mantel-Haenzel combined chi-square (X^2) procedure was used to determine significant difference between virus control and treated groups. Chi-square values greater than 3.84 are considered significant (95 percent confidence level) in this test.

In data set [4] the test system is rhinovirus type 2 (RV-2). Put plainly: Tissue culture antiviral testing, RV-2 (viral cytopathic effect in HeLa cells). In kind it is cell-based. As to conditions: Enterovirus, 48 and 72 hours post-treatment, read-out: Lowest concentration of compound necessary to cause a 50 percent reduction in cytopathic effect, RV-2. The method, then: as §1, §2, §3
Data set [5] deals with rhinovirus type 1A (RV-1A). Put plainly: Tissue culture antiviral testing, RV-1A (viral cytopathic effect in HeLa cells). The format is cell-based. The note with it: Enterovirus, 48 and 72 hours post-treatment, read-out: Lowest concentration of compound necessary to cause a 50 percent reduction in cytopathic effect, RV-1A. The method, then:
as §1, §2, §3

These results are taken from US4277492A, “Novel 4-bis((Phenylmethyl)amino)-benzenesulfonic acids possessing antiviral activity” (priority 1980, dated 1981).

Structures are written as SMILES. In brackets after ≈: the same amount, converted by molar mass. Where only a bound is given, the exact number is not on record here.

For the compound `O=S(=O)(O)c1ccc(N(Cc2ccc(F)cc2)Cc2ccc(Cl)cc2)cc1` [Example 4, 4-(((4-Chlorophenyl)methyl)((4-fluorophenyl)-methyl)amino)benzenesulfonic Acid], the values for the EC50 in data set [1], in data set [4] and in data set [5] were less than 6.25 µg/mL, more than 100 µg/mL and 50 µg/mL (≈ 123 µM), respectively. For the same compound, the MCC in data set [2] was 50 µg/mL. In addition, the “Antiviral activity in testing with mice (in words)” value (from here on “Antiviral activity in testing”) in data set [3] was “active antiviral compounds in testing with mice”.

As for `O=S(=O)(O)c1ccc(N(Cc2cccc(F)c2)Cc2cccc(F)c2)cc1` [Example 9, 4-(Bis((3-fluorophenyl)methyl)amino)benzenesulfonic Acid], the figures for the EC50 in data set [1], in data set [4] and in data set [5] were 12.5 µg/mL (≈ 32.1 µM), more than 100 µg/mL and 50 µg/mL (≈ 128 µM), respectively. Further, the MCC in data set [2] was 100 µg/mL. Moreover, the “Antiviral activity in testing” value in data set [3] is reported as “active antiviral compounds in testing with mice”.

For the compound `O=S(=O)(O)c1ccc(N(Cc2ccc(Br)cc2)Cc2ccc(Br)cc2)cc1` [Example 7, 4-(Bis((4-bromophenyl)methyl)amino)benzenesulfonic Acid], the results for the EC50 in data set [1], in data set [4] and in data set [5] were less than 6.25 µg/mL, more than 100 µg/mL and 12.5 µg/mL (≈ 24.5 µM), respectively. For the same compound, the MCC in data set [2] came to 25 µg/mL. Further, the “Antiviral activity in testing” value in data set [3] is recorded as “active antiviral compounds in testing with mice”.

Regarding `O=[N+]([O-])c1cccc(CN(Cc2cccc([N+](=O)[O-])c2)c2ccc(S(=O)(=O)O)cc2)c1` [Example 1, 4-(Bis((3-nitrophenyl)methyl)amino)benzenesulfonic Acid], the EC50 in data set [1] was less than 6.25 µg/mL; in data set [4] it was more than 100 µg/mL; in data set [5] it was 6.25 µg/mL (≈ 14.1 µM). In addition, the MCC in data set [2] stood at 25 µg/mL.

With `O=S(=O)(O)c1ccc(N(Cc2c(Cl)cccc2Cl)Cc2c(Cl)cccc2Cl)cc1` [Example 2, 4-(Bis((2,6-dichlorophenyl)methyl)amino)benzenesulfonic Acid], the EC50 in data set [1] is less than 6.25 µg/mL; in data set [4], 12.5 µg/mL (≈ 25.4 µM); in data set [5], 6.25 µg/mL (≈ 12.7 µM). The MCC in data set [2] was 12.5 µg/mL.

On to `O=S(=O)(O)c1ccc(N(Cc2ccc(F)cc2)Cc2ccc(F)cc2)cc1` [Example 3, 4-(Bis((4-fluorophenyl)methyl)amino)benzenesulfonic Acid], for which the EC50 in data set [1] was less than 6.25 µg/mL; in data set [4] it was more than 100 µg/mL; in data set [5], 12.5 µg/mL (≈ 32.1 µM). The MCC in data set [2] came to 100 µg/mL. Further, in data set [3], the “Antiviral activity in testing” value is on record as “active antiviral compounds in testing with mice”.

Consider `O=S(=O)(O)c1ccc(N(Cc2cccc(Cl)c2)Cc2cccc(Cl)c2)cc1` [Example 6, 4-(Bis((3-chlorophenyl)methyl)amino)benzenesulfonic Acid], for which the results for the EC50 in data set [1], in data set [4] and in data set [5] were less than 6.25 µg/mL, more than 100 µg/mL and more than 50 µg/mL, respectively. Besides, the MCC in data set [2] was determined as 100 µg/mL. Also, the “Antiviral activity in testing” value in data set [3] is reported as “active antiviral compounds in testing with mice”.

Turning to `O=S(=O)(O)c1ccc(N(Cc2ccc(Cl)cc2)Cc2ccc(Cl)cc2)cc1` [Example 5, 4-(Bis((4-chlorophenyl)methyl)amino)benzenesulfonic Acid], the EC50 in data set [1] is less than 6.25 µg/mL; in data set [4] it was more than 100 µg/mL; in data set [5], 12.5 µg/mL (≈ 29.6 µM). In addition, the MCC in data set [2] is 25 µg/mL. In addition, in data set [3], the “Antiviral activity in testing” value was “active antiviral compounds in testing with mice”.

With `O=S(=O)(O)c1ccc(N(Cc2ccccc2F)Cc2ccccc2F)cc1` [Example 8, 4-(Bis((2-fluorophenyl)methyl)amino)benzenesulfonic Acid], the EC50 was less than 6.25 µg/mL in data set [1], more than 100 µg/mL in data set [4] and more than 100 µg/mL in data set [5]. Also, in data set [2], the MCC worked out at 100 µg/mL.
